The values below come from article PMC10628858, “Investigation of new ferrocenyl-artesunate derivatives as antiparasitics” (Dalton Transactions (Cambridge, England : 2003), 2023).

Each structure is given as a SMILES string.

Series [1] in a line: Stability on HPLC in an aqueous environment. The following applies: aqueous environment (H2O/MeOH). The class given is physicochemical. How it is done:
Resonances belonging to the unsubstituted cyclopentadienyl ring of the ferrocene appeared as a singlet between 4.17 and 4.20 ppm and two triplets which correspond to the substituted ring.
Purity analysis was performed on an Agilent 1260 Infinity II high-performance liquid chromatography (HPLC) system with a DAD detector. A Kinetex C18 100 Å column was used with dimensions, 150 × 4.6 mm with a 5 μm […]. A mobile phase of (A) H2O (B) MeOH was used at gradients of t = 0 min 10% B, t = 15 min 80% B, t = 35 min 80% B, t = 37 min 10% B and t = 45 min 10% B over a 45 min period. The flow rate was set to 1 mL min^−1, and the detection wavelength was set at 260 nm with the reference wavelength at 360 nm. 50 μL sample was injected, with needle washes of MeOH between injections. The peaks were manually integrated to gain the percentage area. Samples were dissolved in 10% MeOH/90% H2O at 100 μM concentrations.

Series [2] relates to P. falciparum, NF54. The experiment in a line: P. falciparum growth inhibition assay (Malstat). It counts as cell-based, Plasmodium falciparum. Particulars: 72 h, maximum concentration tested 6000 nM, three independent experiments in triplicate, ± SEM; read-out: IC50 against P. falciparum, NF54. How it is done: The antimalarial activities of C1 to C4 and F1 to F3 were determined against the wild-type drug sensitive strain of P. falciparum, NF54. […]. Further, a close link between activity and oxidation potentials of the drugs was found. The lower the oxidation potential of the ferrocene moiety, the higher the activity of the final compound, giving directions for future compound development.
The drugs were prepared as 10 mM stocks in sterile DMSO. The drugs were then diluted using freshly prepared growth medium to the desired testing concentrations. Chloroquine and artesunate were used as standards. A full dose–response was preformed using a 96-well plate assay and the IC50 values determined. The maximum concentration tested was 6 μM which was then serially diluted 2-fold in growth media. The plates were incubated at 37 °C for 72 h at 3% O2 and 4% CO2. After 72 h the wells were resuspended and 15 μL of the suspension was transferred to a duplicate plate containing 100 μL of Malstat reagent and 25 μL of nitroblue tetrazolium solution. The plates were allowed 20 minutes in the dark to develop and the absorbance of each well was measured using UV-Vis at 620 nm.

Series [3] in a line: Kinetic aqueous solubility, turbidimetric assay. Particulars: turbidimetric assay, buffer not named. The class given is physicochemical. As for the experimental part: The kinetic solubility of the complexes was determined by means of a turbidimetric assay. The complexes were first dissolved in dimethyl sulfoxide (DMSO) which was then serially diluted in either phosphate buffered saline (PBS) or 4-(2-hydroxyethyl)-1-piperazineethanesulfonic acid (HEPES). The extent of precipitation was then measured using the absorbance at 620 nm.
PBS was prepared by dissolving one PBS tablet in 200 mL of distilled water at 25 °C yielding a buffered solution containing 10 mM phosphate buffer, 3.0 mM KCl and 140 mM NaCl. The pH was then confirmed to be at 7.4 with a pH meter. A 0.025 M HEPES buffer was prepared by dissolving HEPES free acid 5.00 mmol in distilled water (±180 mL) and titrating the solution with 0.100 M NaOH until a pH 7 was reached, the volume was then made up to 200 mL using distilled water. A 10.0 mM stock of each drug was prepared in DMSO. […] 4 μL of the drugs was then pipetted into a 96-well plate loaded with 196 μL of either the desired buffer solution or DMSO. The test plates were then incubated at 37 °C for 4 hours following which the UV-Vis absorbance was measured at 620 nm and the absorbances corrected by subtracting the blank.

The subject of series [4] is T. gondii (ΔKu80:mNeon). The experiment in a line: Immunofluorescence microscopy of intracellular T. gondii. It counts as cell-based, Toxoplasma gondii. The following applies: 5 μM; for Parasite replication: 24 hours. As for the experimental part: To determine morphological changes associated with drug treatment, immunofluorescence microscopy of T. gondii was performed after 24 hours or 48 hours of drug treatment at a concentration of 5 μM.
Since artemisinin has previously been reported to accumulate in the membrane of P. falciparum due to its affinity for neutral lipids,[46] it was hypothesized that the complex C3 may be doing the same thing in T. gondii. Then, upon activation of the endoperoxide bridge, this causes oxidative damage to the membranes, leading to disruption and release of parasite cytosolic contents.
Coverslips preseeded with HFF cells were infected with ΔKu80:mNeonGreen and incubated at 37 °C for 1 h to allow invasion. Following this, drug (5 μM) was added, and the plates placed back in the incubator for 24 hours. Cells were washed with 1 mL of sterile PBS, which was then again removed and 500 μL of 4% paraformaldehyde (PFA) was added and incubated at room temperature for 20 minutes. The PFA was removed, cell washed once with PBS. Cells were blocked and permeabilisated with incubation 500 μL of 2% bovine serum albubin (BSA), 0.5% Triton X-100 in PBD overnight at 4 °C. The coverslips were then removed and submerged in distilled water three times and mounted using Fluoromount with DAPI (Southern Biotech). The slides were then visualized using a DeltaVision fluorescent microscope (Applied Precision) and processed using SoftWoRx and FIJI software.

For series [5], the system named is P. falciparum 3D7 (chloroquine sensitive). Also on record: method as in doi:10.1016/j.jorganchem.2023.122633. The following applies: chloroquine sensitive strain; cited from earlier work.
Series [6] has as its system P. falciparum Dd2 (chloroquine resistant). On the set-up: method as in doi:10.1016/j.jorganchem.2023.122633. Particulars: chloroquine resistant strain; cited from earlier work.

As for `CC1CCC2C(C)C(OC(=O)CCC(=O)NCCNC(=O)[c-]3cccc3)OC3OC4(C)CCC1C32OO4.[Fe+2].c1cc[cH-]c1` (stereo not drawn) [Compound C3], the “Stability on HPLC” value in series [1] is recorded as “high degree of instability”. Besides, the IC50 – broadly, the concentration that inhibits the measured activity by half – in series [2] is 4.9 ± 0.93 µM. Further, in series [3], the Aqueous solubility (usually the dissolved amount per volume that the medium holds) is 5 to 10 µM and the “Solubility range” value lay in the range of 3 to 6 µg/mL. For the same compound, in series [4], the Parasite replication result was “completely block replication”. Further, the Parasite morphology entry in series [4] (24 hours or 48 hours) is “novel morphology”.

In the case of `CC1CCC2C(C)C(OC(=O)CCC(=O)OCCNC(=O)[c-]3cccc3)OC3OC4(C)CCC1C32OO4.[Fe+2].c1cc[cH-]c1` (stereo not drawn) [Compound C1], the IC50 in series [2] is 3.4 ± 0.53 µM. Also, in series [3], the “Solubility range” value is 25 to 51 µg/mL. In series [4], the Parasite replication result is listed as “completely block replication”.

As to `CC1CCC2C(C)C(OC(=O)CCC(=O)NC[c-]3cccc3)OC3OC4(C)CCC1C32OO4.[Fe+2].c1cc[cH-]c1` (stereo not drawn) [Compound C4], the “Activity against P. falciparum 3D7” value in series [5] is recorded as 6.1 nM. The “Stability on HPLC” value in series [1] is given as “high degree of instability”. Also, the IC50 in series [2] is 0.012 ± 0.002 µM. The “Activity against P. falciparum Dd2” value in series [6] is reported as 3.0 nM. Moreover, in series [3], the “Aqueous solubility” value lay within 5 to 10 µM and the “Solubility range” value lay within 3 to 6 µg/mL.
